Key:
Details in all cases: 72 h
Caco-2 [1] = test: cell viability relative to DMSO; higher = less toxic
HepG2 [2] = test: as above
U2OS [3] = test: as above
Vero E6 [4] = test: as above
Caco-2 [5] = test: relative viability EC50 (midpoint between 100% and the lowest measured viability); higher = less toxic
HepG2 [6] = test: as above
U2OS [7] = test: as above
Vero E6 [8] = test: as above
Caco-2 [9] = test: drug sensitivity score (DSS) for viability; higher = more toxic; extreme values may be limits of the assay
HepG2 [10] = test: as above
U2OS [11] = test: as above
Vero E6 [12] = test: as above
Calu-3 [13] = test: cell viability relative to DMSO; higher = less toxic
Calu-3 [14] = test: relative viability EC50 (midpoint between 100% and the lowest measured viability); higher = less toxic
Calu-3 [15] = test: drug sensitivity score (DSS) for viability; higher = more toxic; extreme values may be limits of the assay

| Compound | cell viability (Caco-2 [1]; 1 nM) [%] | cell viability (Caco-2 [1]; 10 nM) [%] | cell viability (Caco-2 [1]; 100 nM) [%] | cell viability (Caco-2 [1]; 1000 nM) [%] | cell viability (Caco-2 [1]; 10000 nM) [%] | cell viability (HepG2 [2]; 1 nM) [%] | cell viability (HepG2 [2]; 10 nM) [%] | cell viability (HepG2 [2]; 100 nM) [%] | cell viability (HepG2 [2]; 1000 nM) [%] | cell viability (HepG2 [2]; 10000 nM) [%] | cell viability (U2OS [3]; 1 nM) [%] | cell viability (U2OS [3]; 10 nM) [%] | cell viability (U2OS [3]; 100 nM) [%] | cell viability (U2OS [3]; 1000 nM) [%] | cell viability (U2OS [3]; 10000 nM) [%] | cell viability (Vero E6 [4]; 1 nM) [%] | cell viability (Vero E6 [4]; 10 nM) [%] | cell viability (Vero E6 [4]; 100 nM) [%] | cell viability (Vero E6 [4]; 1000 nM) [%] | cell viability (Vero E6 [4]; 10000 nM) [%] | relative viability EC50 (Caco-2 [5]) [µM] | relative viability EC50 (HepG2 [6]) [µM] | relative viability EC50 (U2OS [7]) [µM] | relative viability EC50 (Vero E6 [8]) [µM] | drug sensitivity score (Caco-2 [9]) | drug sensitivity score (HepG2 [10]) | drug sensitivity score (U2OS [11]) | drug sensitivity score (Vero E6 [12]) | cell viability (Calu-3 [13]; 1 nM) [%] | cell viability (Calu-3 [13]; 10 nM) [%] | cell viability (Calu-3 [13]; 100 nM) [%] | cell viability (Calu-3 [13]; 1000 nM) [%] | cell viability (Calu-3 [13]; 10000 nM) [%] | relative viability EC50 (Calu-3 [14]) [µM] | drug sensitivity score (Calu-3 [15]) |
| --- | --- | --- | --- | --- | --- | --- | --- | --- | --- | --- | --- | --- | --- | --- | --- | --- | --- | --- | --- | --- | --- | --- | --- | --- | --- | --- | --- | --- | --- | --- | --- | --- | --- | --- | --- |
| O=C1C(Cl)=C(N2CCOCC2)C(=O)N1c1ccc(Cl)c(Cl)c1 [RI-1] | 97.2 | 94.9 | 93.2 | 106 | 110 | 98.9 | 107 | 103 | 97.3 | 98.6 | 89.2 | 97.2 | 96.8 | 96.7 | 101 | 102 | 95.5 | 97.7 | 97.1 | 107 | > 10 | > 10 | > 10 | > 10 | 0 | 0 | 0 | 0 |  |  |  |  |  |  |  |
| COc1ccc(CNC(=O)/C=C/c2ccc3[nH]cc(CCN(C)C)c3c2)cc1 | 106 | 95 | 93.8 | 96.6 | 98.7 | 107 | 90.6 | 93.5 | 94 | 96.8 | 102 | 97.4 | 98.1 | 98.9 | 99.3 | 98.5 | 98 | 101 | 101 | 102 | > 10 | > 10 | > 10 | > 10 | 0 | 0 | 0 | 0 |  |  |  |  |  |  |  |
| N#Cc1ccc(Oc2ccc3c(c2)COB3O)cc1 [crisaborole] | 104 | 104 | 107 | 98.8 | 101 | 106 | 105 | 112 | 104 | 95.8 |  |  |  |  |  | 103 | 105 | 101 | 102 | 98.1 | > 10 | > 10 |  | > 10 | 0 | 0 |  | 0 | 89.8 | 94.6 | 96.7 | 94.3 | 108 | > 10 | 0 |
| O=C1NC(=O)/C(=C/c2cccc(C(F)(F)F)c2)S1 [SMI-4a] | 97.7 | 101 | 105 | 104 | 92.7 | 96.4 | 112 | 91 | 97.4 | 105 |  |  |  |  |  | 104 | 101 | 99.1 | 101 | 95.9 | > 10 | > 10 |  | > 10 | 0 | 0 |  | 0 | 101 | 98.1 | 95.4 | 100 | 97.4 | > 10 | 0 |
| O=C(/C=C/c1ccccc1)NCCO [brolitene] | 102 | 103 | 95 | 93.5 | 95 | 107 | 104 | 99.3 | 98 | 102 | 107 | 109 | 102 | 104 | 99.2 | 104 | 103 | 99.4 | 104 | 100 | > 10 | > 10 | > 10 | > 10 | 0 | 0 | 0 | 0 |  |  |  |  |  |  |  |
| CN(C)/N=N/c1ccc(C(=O)O)cc1 [CB-10-277] | 95.8 | 97.3 | 101 | 96.6 | 102 | 102 | 95.9 | 113 | 102 | 105 | 96.6 | 104 | 98.1 | 99.9 | 104 | 98.7 | 98.3 | 97.6 | 97.2 | 106 | > 10 | > 10 | > 10 | > 10 | 0 | 0 | 0 | 0 |  |  |  |  |  |  |  |
| NCCCNCCSP(=O)(O)O [amifostine] | 88.8 | 100 | 86.4 | 100 | 92.7 | 103 | 100 | 96.6 | 93 | 98.2 |  |  |  |  |  | 104 | 108 | 106 | 97.3 | 102 | > 10 | > 10 |  | > 10 | 0 | 0 |  | 0 | 95.8 | 101 | 101 | 100 | 98 | > 10 | 0 |
| Cc1cc(-c2nc3cc(F)ccc3s2)ccc1NC(=O)[C@@H](N)CCCCN [phortress] | 100 | 100 | 93.3 | 92.2 | 73.5 | 95.6 | 107 | 86.3 | 3.3 | 1.6 | 97.9 | 93.9 | 97.5 | 95.2 | 93.6 | 92.3 | 95.8 | 94.4 | 97.2 | 107 |  | 0.208 | > 10 | > 10 | 1.6 | 20 | 0 | 0 | 102 | 99.9 | 97.6 | 91.3 | 79.9 | > 10 | 1.1 |

Source: the supplement of paper PMC13380429
